According to patent US4404215A, “Piperidyl phenyl trifluoroethanols” (Science Union et Cie, priority 1978, dated 1983):
Values belong to the molecule of their own block, whether it stands above or below them.

How the values were obtained:
solubility = format: physicochemical; settings: for solubility in organic solvents: most of the organic solvents
[1] = antipyretic effect, baker yeast hyperthermia (LOUX); format: in vivo; settings: rats; paracetamol 50 to 500 mg
Method: The antipyretic effect of the compounds of formula I has been determined according to the method described by J. J. LOUX and cowork. Toxicol. and Appl. Pharmacol. 22 (1972) 672. According to this method a hyperthermic crisis occurs in the rats after subcutaneous injection of baker yeast.
The compounds to be tested are administered orally in a suspension of an arabic gum solution 19 hours after the injection of yeast.
The body temperatures are measured from 1 to 5 hours after the ingestion of the compounds of formula I by means of a thermistor. The dosages tested range from 25 to 200 mg/kg.
The increase of body temperature in the control rats is about 2° in comparison of that of the untreated rats. The animals which receive the compounds of formula I show only a moderate increase of temperature, mainly 3 and 4 hours after the ingestion of the tested compound. The highest dosages (150 and 200 mg/kg) caused a return to the initial temperature in the treated animals.
In similar experimental conditions, batches of rats receive paracetamol at dose ranging from 50 to 500 mg.

[2] = nephrotoxicity and hepatotoxicity context; cited from earlier work

SMILES: CCCCCCCCCCCCCCCCNc1ccc(C(O)C(F)(F)F)cc1 (racemic) [Example 8, 1-(4-nhexadecylaminophenyl) 2,2,2-trifluoroethanol]
- solubility in dilute solutions of acids (solubility; hydrochloric acid or acetic acid): soluble

SMILES: OC(c1ccc(NC2CCN(CCc3ccccc3)CC2)cc1)C(F)(F)F (centres unmarked) [Example 9, 4-[4-(2,2,2-trifluoro 1-hydroxyethyl)phenylamino] 1-(2-phenylethyl) piperidine]
- solubility in N/10 hydrochloric acid (solubility; just calculated amount of N/10 hydrochloric acid): soluble

SMILES: CC(=O)Nc1ccc(O)cc1 [paracetamol]
- useful dose which curbs significantly the increase of temperature, relative to compounds of formula I [1]: about twice of that of the compounds of formula I
- toxicity [2]: well-known toxicity

Now from value to molecule:

- solubility in ethanol (solubility; ethanol): soluble
- solubility in methanol (solubility; methanol): soluble
- solubility in water (solubility): insoluble
SMILES: CC(=O)Nc1ccc(C(O)C(F)(F)F)cc1 (centres unmarked) [Example 1, 1-(4-acetamidophenyl) 2,2,2-trifluoroethanol]

- solubility in organic solvents (solubility): soluble
- solubility in water (solubility): insoluble
SMILES: CC(C)C(=O)Nc1ccc(C(O)C(F)(F)F)cc1 (centres unmarked) [Example 2, 1-(4-isobutyramidophenyl) 2,2,2-trifluoroethanol]

- solubility in organic solvents (solubility): soluble
- solubility in water (solubility): insoluble
SMILES: CCOC(c1ccc(NC(C)=O)cc1)C(F)(F)F (centres unmarked) [Example 10, 1-(4-acetamidophenyl) 1-ethoxy 2,2,2-trifluoroethane]
